Measured values from patent publication EP4722207A1, “OXOISOINDOLINYL-SUBSTITUTED TETRAHYDROPYRIMIDINEDIONE DERIVATIVE AND USE THEREOF” (Gluetacs Therapeutics (Shanghai) Co., Ltd., priority 2023, dated 2024).

Columns and labels:
WEE1 = target: T1, WEE1 (Homo sapiens, UniProt P30291+Q96SW2); assay: Western-blot assay, substrate protein degradation in hPBMCs: WEE1; assay type: cell-based; details: 24 hours of compound treatment, 50 nM and 500 nM
T1 construct: effects of the compounds of the present disclosure on the expression of target proteins in cells; endogenous in cells; host or cells: human PBMCs (hPBMCs)
T1 sequence (P30291 whole entry): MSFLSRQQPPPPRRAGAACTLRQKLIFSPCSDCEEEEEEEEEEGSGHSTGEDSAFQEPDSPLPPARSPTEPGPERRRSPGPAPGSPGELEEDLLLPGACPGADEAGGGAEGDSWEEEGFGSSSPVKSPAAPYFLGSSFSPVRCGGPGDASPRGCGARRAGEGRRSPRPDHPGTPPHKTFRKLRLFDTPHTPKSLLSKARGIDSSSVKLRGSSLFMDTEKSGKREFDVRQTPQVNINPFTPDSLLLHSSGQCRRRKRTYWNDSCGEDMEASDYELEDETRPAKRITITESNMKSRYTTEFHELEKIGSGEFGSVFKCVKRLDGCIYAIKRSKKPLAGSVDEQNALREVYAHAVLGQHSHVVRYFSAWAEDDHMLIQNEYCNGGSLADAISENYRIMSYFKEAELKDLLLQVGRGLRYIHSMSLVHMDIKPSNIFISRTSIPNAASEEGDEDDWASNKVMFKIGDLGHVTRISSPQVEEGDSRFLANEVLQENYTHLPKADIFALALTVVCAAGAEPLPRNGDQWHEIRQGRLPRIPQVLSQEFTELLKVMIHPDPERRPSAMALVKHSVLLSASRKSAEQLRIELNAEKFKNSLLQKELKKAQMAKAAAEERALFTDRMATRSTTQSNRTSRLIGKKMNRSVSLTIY
T1 sequence (Q96SW2 whole entry): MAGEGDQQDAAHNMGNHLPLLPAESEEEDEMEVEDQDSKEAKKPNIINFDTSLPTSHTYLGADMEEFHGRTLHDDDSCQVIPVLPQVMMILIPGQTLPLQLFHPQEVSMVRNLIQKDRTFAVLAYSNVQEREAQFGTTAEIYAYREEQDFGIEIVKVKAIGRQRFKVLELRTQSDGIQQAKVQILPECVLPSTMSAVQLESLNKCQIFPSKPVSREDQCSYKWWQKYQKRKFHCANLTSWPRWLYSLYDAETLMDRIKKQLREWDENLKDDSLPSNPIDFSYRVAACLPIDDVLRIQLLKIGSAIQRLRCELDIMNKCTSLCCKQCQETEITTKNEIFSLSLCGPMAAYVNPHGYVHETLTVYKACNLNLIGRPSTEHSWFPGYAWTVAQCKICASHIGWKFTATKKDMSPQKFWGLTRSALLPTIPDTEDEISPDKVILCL
T1 sequence (Q16531 whole entry partner): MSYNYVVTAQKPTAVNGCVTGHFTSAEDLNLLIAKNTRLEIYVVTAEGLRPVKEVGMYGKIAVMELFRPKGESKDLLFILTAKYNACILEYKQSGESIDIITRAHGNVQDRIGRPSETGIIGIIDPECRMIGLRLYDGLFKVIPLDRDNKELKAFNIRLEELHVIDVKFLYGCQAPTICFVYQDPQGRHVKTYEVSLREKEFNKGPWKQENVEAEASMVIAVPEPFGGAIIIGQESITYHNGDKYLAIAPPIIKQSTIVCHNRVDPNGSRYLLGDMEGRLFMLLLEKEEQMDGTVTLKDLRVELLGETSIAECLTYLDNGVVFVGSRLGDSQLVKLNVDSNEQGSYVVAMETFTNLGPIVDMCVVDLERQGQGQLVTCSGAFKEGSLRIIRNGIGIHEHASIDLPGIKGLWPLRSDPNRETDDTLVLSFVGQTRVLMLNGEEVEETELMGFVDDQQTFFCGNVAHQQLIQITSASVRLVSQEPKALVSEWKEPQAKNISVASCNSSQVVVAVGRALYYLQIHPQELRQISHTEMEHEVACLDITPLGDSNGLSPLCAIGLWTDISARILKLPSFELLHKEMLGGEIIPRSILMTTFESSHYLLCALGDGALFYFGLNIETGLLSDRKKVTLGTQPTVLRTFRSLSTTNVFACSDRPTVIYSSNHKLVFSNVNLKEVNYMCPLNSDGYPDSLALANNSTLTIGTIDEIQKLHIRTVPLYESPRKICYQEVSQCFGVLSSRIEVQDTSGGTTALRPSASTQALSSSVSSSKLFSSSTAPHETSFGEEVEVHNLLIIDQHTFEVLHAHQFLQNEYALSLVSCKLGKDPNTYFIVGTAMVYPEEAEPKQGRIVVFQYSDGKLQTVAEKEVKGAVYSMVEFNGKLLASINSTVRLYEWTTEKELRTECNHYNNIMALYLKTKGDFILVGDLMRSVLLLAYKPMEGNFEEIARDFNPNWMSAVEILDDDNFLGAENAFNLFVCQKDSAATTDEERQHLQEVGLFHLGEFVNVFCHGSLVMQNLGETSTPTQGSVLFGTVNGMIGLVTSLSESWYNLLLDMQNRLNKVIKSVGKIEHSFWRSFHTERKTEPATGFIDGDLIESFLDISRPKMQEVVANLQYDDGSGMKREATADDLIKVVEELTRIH

IKZF1 = target: T2, IKZF1 (Homo sapiens, UniProt Q13422+Q96SW2); assay: Western-blot assay, substrate protein degradation in hPBMCs: IKZF1; assay type: cell-based; details: 24 hours of compound treatment, 50 nM and 500 nM
T2 construct: effects of the compounds of the present disclosure on the expression of target proteins in cells; endogenous in cells; host or cells: human PBMCs (hPBMCs)
T2 sequence (Q13422 whole entry): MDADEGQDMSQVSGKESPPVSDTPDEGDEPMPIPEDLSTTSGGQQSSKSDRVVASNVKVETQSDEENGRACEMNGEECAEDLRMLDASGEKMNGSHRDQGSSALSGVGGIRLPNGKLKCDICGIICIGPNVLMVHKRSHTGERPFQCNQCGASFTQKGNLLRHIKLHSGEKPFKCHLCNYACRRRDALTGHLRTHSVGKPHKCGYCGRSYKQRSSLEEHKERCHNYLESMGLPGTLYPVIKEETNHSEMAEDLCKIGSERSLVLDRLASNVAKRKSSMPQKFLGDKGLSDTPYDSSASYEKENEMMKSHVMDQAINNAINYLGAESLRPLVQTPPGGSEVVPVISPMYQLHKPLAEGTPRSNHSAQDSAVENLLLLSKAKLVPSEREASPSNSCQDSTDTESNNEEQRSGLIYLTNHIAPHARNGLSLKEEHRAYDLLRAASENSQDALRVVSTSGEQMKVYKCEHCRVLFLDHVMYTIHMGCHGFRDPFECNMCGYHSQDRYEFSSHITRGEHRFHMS
T2 sequence (Q96SW2 whole entry): as the sequence (Q96SW2 whole entry) above
T2 sequence (Q16531 whole entry partner): as the sequence (Q16531 whole entry partner) above

IKZF2 = target: T3, IKZF2 (Homo sapiens, UniProt Q96SW2+Q9UKS7); assay: Western-blot assay, substrate protein degradation in hPBMCs: IKZF2; assay type: cell-based; details: 24 hours of compound treatment, 50 nM and 500 nM
T3 construct: effects of the compounds of the present disclosure on the expression of target proteins in cells; endogenous in cells; host or cells: human PBMCs (hPBMCs)
T3 sequence (Q9UKS7 whole entry): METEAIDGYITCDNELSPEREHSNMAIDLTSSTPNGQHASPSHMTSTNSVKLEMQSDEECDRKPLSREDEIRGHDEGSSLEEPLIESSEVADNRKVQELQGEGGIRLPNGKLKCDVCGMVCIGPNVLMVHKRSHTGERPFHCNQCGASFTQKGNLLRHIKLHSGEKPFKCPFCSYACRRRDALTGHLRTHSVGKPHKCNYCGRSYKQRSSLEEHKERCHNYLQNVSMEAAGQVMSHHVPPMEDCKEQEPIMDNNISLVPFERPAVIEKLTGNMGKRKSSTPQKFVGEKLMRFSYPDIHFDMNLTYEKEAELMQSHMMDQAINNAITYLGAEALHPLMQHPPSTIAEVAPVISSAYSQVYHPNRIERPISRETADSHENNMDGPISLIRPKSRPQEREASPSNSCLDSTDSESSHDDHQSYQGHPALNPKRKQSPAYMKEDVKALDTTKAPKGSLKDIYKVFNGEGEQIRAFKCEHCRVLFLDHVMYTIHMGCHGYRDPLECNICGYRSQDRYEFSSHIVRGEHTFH
T3 sequence (Q96SW2 whole entry): as the sequence (Q96SW2 whole entry) above
T3 sequence (Q16531 whole entry partner): as the sequence (Q16531 whole entry partner) above

IKZF3 = target: T4, IKZF3 (Homo sapiens, UniProt Q96SW2+Q9UKT9); assay: Western-blot assay, substrate protein degradation in hPBMCs: IKZF3; assay type: cell-based; details: 24 hours of compound treatment, 50 nM and 500 nM
T4 construct: effects of the compounds of the present disclosure on the expression of target proteins in cells; endogenous in cells; host or cells: human PBMCs (hPBMCs)

CK1α = target: T5, CK1α (Homo sapiens, UniProt P48729+Q96SW2); assay: Western-blot assay, substrate protein degradation in hPBMCs: CK1α; assay type: cell-based; details: 24 hours of compound treatment, 50 nM and 500 nM
T5 construct: effects of the compounds of the present disclosure on the expression of target proteins in cells; endogenous in cells; host or cells: human PBMCs (hPBMCs)
T5 sequence (P48729 whole entry): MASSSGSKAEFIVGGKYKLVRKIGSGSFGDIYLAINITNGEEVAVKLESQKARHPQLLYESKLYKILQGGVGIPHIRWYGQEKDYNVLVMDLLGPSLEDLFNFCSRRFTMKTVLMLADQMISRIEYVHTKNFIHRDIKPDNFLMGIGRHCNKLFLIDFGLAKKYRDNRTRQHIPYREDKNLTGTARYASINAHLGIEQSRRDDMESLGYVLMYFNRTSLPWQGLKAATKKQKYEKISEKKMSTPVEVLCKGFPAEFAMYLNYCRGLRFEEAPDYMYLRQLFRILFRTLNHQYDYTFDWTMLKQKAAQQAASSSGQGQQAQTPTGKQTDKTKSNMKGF
T5 sequence (Q96SW2 whole entry): as the sequence (Q96SW2 whole entry) above
T5 sequence (Q16531 whole entry partner): as the sequence (Q16531 whole entry partner) above

GSPT1 = target: T6, GSPT1 (Homo sapiens, UniProt P15170+Q96SW2); assay: Western-blot assay, substrate protein degradation in hPBMCs: GSPT1; assay type: cell-based; details: 24 hours of compound treatment, 50 nM and 500 nM
T6 construct: effects of the compounds of the present disclosure on the expression of target proteins in cells; endogenous in cells; host or cells: human PBMCs (hPBMCs)
T6 sequence (P15170 whole entry): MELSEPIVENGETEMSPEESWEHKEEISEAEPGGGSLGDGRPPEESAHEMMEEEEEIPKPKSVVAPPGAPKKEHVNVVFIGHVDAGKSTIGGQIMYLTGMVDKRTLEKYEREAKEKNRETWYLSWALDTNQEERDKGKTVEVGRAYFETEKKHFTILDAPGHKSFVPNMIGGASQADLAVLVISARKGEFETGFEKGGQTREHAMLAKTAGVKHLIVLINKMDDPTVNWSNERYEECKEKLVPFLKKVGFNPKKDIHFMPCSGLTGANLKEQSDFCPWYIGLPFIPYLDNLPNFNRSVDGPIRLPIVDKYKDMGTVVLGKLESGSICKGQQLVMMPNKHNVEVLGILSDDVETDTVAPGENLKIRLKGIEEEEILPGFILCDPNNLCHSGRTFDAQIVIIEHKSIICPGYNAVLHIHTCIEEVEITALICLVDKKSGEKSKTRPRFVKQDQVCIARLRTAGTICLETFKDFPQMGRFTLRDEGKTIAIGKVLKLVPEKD
T6 sequence (Q96SW2 whole entry): as the sequence (Q96SW2 whole entry) above
T6 sequence (Q16531 whole entry partner): as the sequence (Q16531 whole entry partner) above

H292 = assay: Cell viability assay (CellTiter-Meiluncell Luminescent), tumor cell proliferation, H292; details: Homo sapiens, NCI-H292, 96 h; for inhibition at 0.01 µM: read-out: Inhibition Rate at 10 nM (%); for inhibition at 0.5 µM: read-out: Inhibition Rate at 500 nM (%)
H2228 = assay: Cell viability assay (CellTiter-Meiluncell Luminescent), tumor cell proliferation, H2228; details: Homo sapiens, NCI-H2228, 96 h; for inhibition at 0.01 µM: read-out: Inhibition Rate at 10 nM (%); for inhibition at 0.5 µM: read-out: Inhibition Rate at 500 nM (%)
MDA-MB-231 = assay: Cell viability assay (CellTiter-Meiluncell Luminescent), tumor cell proliferation, MDA-MB-231; details: Homo sapiens, MDA-MB-231, 96 h; for inhibition at 0.01 µM: read-out: Inhibition Rate at 10 nM (%); for inhibition at 0.5 µM: read-out: Inhibition Rate at 500 nM (%)

O=C1CCN(N2Cc3cc(CN4CCN(c5ncnc6sccc56)CC4)ccc3C2=O)C(=O)N1 [GT-08057, 1-(1-oxo-5-((4-(thieno[2,3-d]pyrimidin-4-yl)piperazin-1-yl)methyl)isoindolin-2-yl)dihydropyrimidine-2,4(1H,3H)-dione]
substrate protein remaining % WEE1 (WEE1): B (80%< substrate protein remaining %≤ 100%) | substrate protein remaining % IKZF1 (IKZF1): A (0% ≤ substrate protein remaining % ≤ 80%) | substrate protein remaining % IKZF2 (IKZF2): B (80%< substrate protein remaining %≤ 100%) | substrate protein remaining % IKZF3 (IKZF3): B (80%< substrate protein remaining %≤ 100%) | substrate protein remaining % CK1α (CK1α): B (80%< substrate protein remaining %≤ 100%) | substrate protein remaining % GSPT1 (GSPT1): A (0% ≤ substrate protein remaining % ≤ 80%) | inhibition at 0.01 µM (H292): 15 to 20% | inhibition at 0.5 µM (H292): 15 to 20% | inhibition at 0.01 µM (H2228): 30 to 40% | inhibition at 0.5 µM (H2228): 20 to 25% | inhibition at 0.01 µM (MDA-MB-231): 25 to 40% | inhibition at 0.5 µM (MDA-MB-231): 25 to 40%

Cc1cc2c(N3CCN(Cc4ccc5c(c4)CN(N4CCC(=O)NC4=O)C5=O)CC3)ncnc2s1 [GT-08059, 1-(5-((4-(6-methylthieno[2,3-d]pyrimidin-4-yl)piperazin-1-yl)methyl)-1-oxoisoindolin-2-yl)dihydropyrimidine-2,4(1H,3H)-dione]
substrate protein remaining % WEE1 (WEE1): B (80%< substrate protein remaining %≤ 100%) | substrate protein remaining % IKZF1 (IKZF1): B (80%< substrate protein remaining %≤ 100%) | substrate protein remaining % IKZF2 (IKZF2): B (80%< substrate protein remaining %≤ 100%) | substrate protein remaining % IKZF3 (IKZF3): A (0% ≤ substrate protein remaining % ≤ 80%) | substrate protein remaining % CK1α (CK1α): B (80%< substrate protein remaining %≤ 100%) | substrate protein remaining % GSPT1 (GSPT1): B (80%< substrate protein remaining %≤ 100%) | inhibition at 0.01 µM (H292): 20 to 40% | inhibition at 0.5 µM (H292): 5 to 10% | inhibition at 0.01 µM (H2228): 30 to 40% | inhibition at 0.5 µM (H2228): 15 to 20% | inhibition at 0.01 µM (MDA-MB-231): 25 to 40% | inhibition at 0.5 µM (MDA-MB-231): 25 to 40%

CC(C)c1cc2c(N3CCN(Cc4ccc5c(c4)CN(N4CCC(=O)NC4=O)C5=O)CC3)ncnc2s1 [GT-08060, 1-(5-((4-(6-isopropylthieno[2,3-d]pyrimidin-4-yl)piperazin-1-yl)methyl)-1-oxoisoindolin-2-yl)dihydropyrimidine-2,4(1H,3H)-dione]
substrate protein remaining % WEE1 (WEE1): B (80%< substrate protein remaining %≤ 100%) | substrate protein remaining % IKZF1 (IKZF1): B (80%< substrate protein remaining %≤ 100%) | substrate protein remaining % IKZF2 (IKZF2): A (0% ≤ substrate protein remaining % ≤ 80%) | substrate protein remaining % IKZF3 (IKZF3): A (0% ≤ substrate protein remaining % ≤ 80%) | substrate protein remaining % CK1α (CK1α): B (80%< substrate protein remaining %≤ 100%) | substrate protein remaining % GSPT1 (GSPT1): B (80%< substrate protein remaining %≤ 100%) | inhibition at 0.01 µM (H292): 20 to 40% | inhibition at 0.5 µM (H292): 20 to 40% | inhibition at 0.01 µM (H2228): 20 to 25% | inhibition at 0.5 µM (H2228): 30 to 40% | inhibition at 0.01 µM (MDA-MB-231): 25 to 40% | inhibition at 0.5 µM (MDA-MB-231): 25 to 40%

Cc1cc2c(C3CCN(Cc4ccc5c(c4)CN(N4CCC(=O)NC4=O)C5=O)CC3)ncnc2s1 [GT-08083, 1-(5-((4-(6-methylthieno[2,3-d]pyrimidin-4-yl)piperidin-1-yl)methyl)-1-oxoisoindolin-2-yl)dihydropyrimidine-2,4(1H,3H)-dione]
substrate protein remaining % WEE1 (WEE1): B (80%< substrate protein remaining %≤ 100%) | substrate protein remaining % IKZF1 (IKZF1): B (80%< substrate protein remaining %≤ 100%) | substrate protein remaining % IKZF2 (IKZF2): B (80%< substrate protein remaining %≤ 100%) | substrate protein remaining % IKZF3 (IKZF3): B (80%< substrate protein remaining %≤ 100%) | substrate protein remaining % CK1α (CK1α): A (0% ≤ substrate protein remaining % ≤ 80%) | substrate protein remaining % GSPT1 (GSPT1): A (0% ≤ substrate protein remaining % ≤ 80%) | inhibition at 0.01 µM (H292): 20 to 40% | inhibition at 0.5 µM (H292): 20 to 40% | inhibition at 0.01 µM (H2228): 25 to 30% | inhibition at 0.5 µM (H2228): 30 to 40% | inhibition at 0.01 µM (MDA-MB-231): 25 to 40% | inhibition at 0.5 µM (MDA-MB-231): 25 to 40%

Cc1nc(C2CCN(Cc3ccc4c(c3)CN(N3CCC(=O)NC3=O)C4=O)CC2)c2c3c(sc2n1)CCCC3 [GT-08089, 1-(5-((4-(2-methyl-5,6,7,8-tetrahydrobenzo[4,5]thieno[2,3-d]pyrimidin-4-yl)piperidin-1-yl)methyl)-1-oxoisoindolin-2-yl)dihydropyrimidine-2,4(1H,3H)-dione]
substrate protein remaining % WEE1 (WEE1): A (0% ≤ substrate protein remaining % ≤ 80%) | substrate protein remaining % IKZF1 (IKZF1): B (80%< substrate protein remaining %≤ 100%) | substrate protein remaining % IKZF2 (IKZF2): B (80%< substrate protein remaining %≤ 100%) | substrate protein remaining % IKZF3 (IKZF3): B (80%< substrate protein remaining %≤ 100%) | substrate protein remaining % CK1α (CK1α): A (0% ≤ substrate protein remaining % ≤ 80%) | substrate protein remaining % GSPT1 (GSPT1): A (0% ≤ substrate protein remaining % ≤ 80%) | inhibition at 0.01 µM (H292): 20 to 40% | inhibition at 0.5 µM (H292): 20 to 40% | inhibition at 0.01 µM (H2228): 20 to 25% | inhibition at 0.5 µM (H2228): 20 to 25% | inhibition at 0.01 µM (MDA-MB-231): 18 to 25% | inhibition at 0.5 µM (MDA-MB-231): 25 to 40%

Cc1csc2ncnc(N3CCN(Cc4ccc5c(c4)C(=O)N(N4CCC(=O)NC4=O)C5=O)CC3)c12 [GT-08091, 2-(2,4-dioxotetrahydropyrimidin-1(2H)-yl)-5-((4-(5-methylthieno[2,3-d]pyrimidin-4-yl)piperazin-1-yl)methyl)isoindoline-1,3-dione]
substrate protein remaining % WEE1 (WEE1): A (0% ≤ substrate protein remaining % ≤ 80%) | substrate protein remaining % IKZF1 (IKZF1): B (80%< substrate protein remaining %≤ 100%) | substrate protein remaining % IKZF2 (IKZF2): B (80%< substrate protein remaining %≤ 100%) | substrate protein remaining % IKZF3 (IKZF3): B (80%< substrate protein remaining %≤ 100%) | substrate protein remaining % CK1α (CK1α): A (0% ≤ substrate protein remaining % ≤ 80%) | substrate protein remaining % GSPT1 (GSPT1): A (0% ≤ substrate protein remaining % ≤ 80%) | inhibition at 0.01 µM (H292): 20 to 40% | inhibition at 0.5 µM (H292): 20 to 40% | inhibition at 0.01 µM (H2228): 20 to 25% | inhibition at 0.5 µM (H2228): 20 to 25% | inhibition at 0.01 µM (MDA-MB-231): 15 to 18% | inhibition at 0.5 µM (MDA-MB-231): 18 to 25%

Cc1sc2ncnc(N3CCN(Cc4ccc5c(c4)C(=O)N(N4CCC(=O)NC4=O)C5=O)CC3)c2c1C [GT-08094, 5-((4-(5,6-dimethylthieno[2,3-d]pyrimidin-4-yl)piperazin-1-yl)methyl)-2-(2,4-dioxotetrahydropyrimidin-1(2H)-yl)isoindoline-1,3-dione]
substrate protein remaining % WEE1 (WEE1): A (0% ≤ substrate protein remaining % ≤ 80%) | substrate protein remaining % IKZF1 (IKZF1): B (80%< substrate protein remaining %≤ 100%) | substrate protein remaining % IKZF2 (IKZF2): B (80%< substrate protein remaining %≤ 100%) | substrate protein remaining % IKZF3 (IKZF3): B (80%< substrate protein remaining %≤ 100%) | substrate protein remaining % CK1α (CK1α): A (0% ≤ substrate protein remaining % ≤ 80%) | substrate protein remaining % GSPT1 (GSPT1): A (0% ≤ substrate protein remaining % ≤ 80%) | inhibition at 0.01 µM (H292): 20 to 40% | inhibition at 0.5 µM (H292): 20 to 40% | inhibition at 0.01 µM (H2228): 30 to 40% | inhibition at 0.5 µM (H2228): 25 to 30% | inhibition at 0.01 µM (MDA-MB-231): 25 to 40% | inhibition at 0.5 µM (MDA-MB-231): 25 to 40%

O=C1CCN(N2C(=O)c3ccc(CN4CCN(c5ncnc6sc(-c7ccccc7)cc56)CC4)cc3C2=O)C(=O)N1 [GT-08097, 2-(2,4-dioxotetrahydropyrimidin-1(2H)-yl)-5-((4-(6-phenylthieno[2,3-d]pyrimidin-4-yl)piperazin-1-yl)methyl)isoindoline-1,3-dione]
substrate protein remaining % WEE1 (WEE1): A (0% ≤ substrate protein remaining % ≤ 80%) | substrate protein remaining % IKZF1 (IKZF1): B (80%< substrate protein remaining %≤ 100%) | substrate protein remaining % IKZF2 (IKZF2): B (80%< substrate protein remaining %≤ 100%) | substrate protein remaining % IKZF3 (IKZF3): B (80%< substrate protein remaining %≤ 100%) | substrate protein remaining % CK1α (CK1α): A (0% ≤ substrate protein remaining % ≤ 80%) | substrate protein remaining % GSPT1 (GSPT1): A (0% ≤ substrate protein remaining % ≤ 80%) | inhibition at 0.01 µM (H292): 5 to 10% | inhibition at 0.5 µM (H292): 10 to 15% | inhibition at 0.01 µM (H2228): 15 to 20% | inhibition at 0.5 µM (H2228): 30 to 40% | inhibition at 0.01 µM (MDA-MB-231): 10 to 15% | inhibition at 0.5 µM (MDA-MB-231): 18 to 25%
